# Target: T1, full-length beta-Catenin (Uniprot ID P35222) (Homo sapiens, UniProt P35222)
# T1 construct: 10 nM full-length beta-Catenin (Uniprot ID P35222)
# T1 sequence (P35222 1-781): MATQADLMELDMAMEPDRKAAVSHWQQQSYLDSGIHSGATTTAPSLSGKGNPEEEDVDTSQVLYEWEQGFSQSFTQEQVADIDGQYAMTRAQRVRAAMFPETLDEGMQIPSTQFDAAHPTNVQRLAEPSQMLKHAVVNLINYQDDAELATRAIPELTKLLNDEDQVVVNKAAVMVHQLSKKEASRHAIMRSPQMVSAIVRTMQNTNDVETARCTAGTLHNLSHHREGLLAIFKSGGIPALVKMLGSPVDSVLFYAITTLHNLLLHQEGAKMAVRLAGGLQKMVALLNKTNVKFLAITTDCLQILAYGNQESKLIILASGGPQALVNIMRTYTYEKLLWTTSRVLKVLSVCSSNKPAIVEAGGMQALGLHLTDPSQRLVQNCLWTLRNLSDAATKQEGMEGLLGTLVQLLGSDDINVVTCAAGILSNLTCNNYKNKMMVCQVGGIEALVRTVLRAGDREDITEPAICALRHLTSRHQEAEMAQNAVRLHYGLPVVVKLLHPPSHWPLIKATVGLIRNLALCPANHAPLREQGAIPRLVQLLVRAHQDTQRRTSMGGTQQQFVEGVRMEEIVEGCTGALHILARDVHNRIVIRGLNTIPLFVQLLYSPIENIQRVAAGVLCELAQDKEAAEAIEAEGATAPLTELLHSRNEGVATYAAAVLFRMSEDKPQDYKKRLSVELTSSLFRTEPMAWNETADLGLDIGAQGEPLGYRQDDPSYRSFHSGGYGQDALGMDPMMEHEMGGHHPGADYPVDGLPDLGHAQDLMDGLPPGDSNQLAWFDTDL
# Experiment: Fluorescence polarization IC50 (beta-catenin / 5FAM-TCF4 10-53 competition)
# Assay type: binding
# Settings: fluorescence polarization; read-out: beta-Catenin FP IC50
row,IC50 [nM],SMILES
1,181,"CC(=O)N1CCC[C@]12CC=CCCCC1(CCCC=CCCOC(=O)N3CC[C@@](C(=O)N[C@@H](Cc4ccsc4)C(=O)N[C@@H](Cc4csc5ccccc45)C(=O)N[C@@H](CCC(N)=O)C(N)=O)(C3)NC(=O)[C@H](CC(N)=O)NC(=O)[C@H](Cc3ccccc3)NC(=O)[C@H](C)NC(=O)[C@H](C)NC(=O)[C@H](CC(=O)O)NC(=O)[C@H](CC(=O)O)NC1=O)NC(=O)[C@H](CC(C)(C)C)NC(=O)[C@H](CC(=O)O)NC2=O (stereo partly drawn) [I-1812, Ac-PL3-Asp-Npg-B5-Asp-Asp-Ala-Ala-Phe-Asn-PyrS1-3Thi-BztA-Gln-NH2]"
2,189,"CC(=O)N1CCC[C@]12CC=CCCCC1(CCCC=CCCOC(=O)N3CC[C@@](C(=O)N[C@@H](Cc4ccsc4)C(=O)N[C@@H](Cc4csc5ccccc45)C(=O)N[C@@H](CCC(N)=O)C(N)=O)(C3)NC(=O)[C@H](CC(C)C)NC(=O)[C@H](Cc3ccccc3)NC(=O)[C@H](C)NC(=O)[C@H](C)NC(=O)[C@H](CC(=O)O)NC(=O)[C@H](CC(=O)O)NC1=O)NC(=O)[C@H](CC(C)(C)C)NC(=O)[C@H](CC(=O)O)NC2=O (stereo partly drawn) [I-1814, Ac-PL3-Asp-Npg-B5-Asp-Asp-Ala-Ala-Phe-Leu-PyrS1-3Thi-BztA-Gln-NH2]"
3,235,"CC(=O)N1CCC[C@]12CC=CCCCC1(CCCC=CCOC(=O)N3CC[C@@](C(=O)N[C@@H](Cc4ccsc4)C(=O)N[C@@H](Cc4csc5ccccc45)C(=O)N[C@@H](CCC(N)=O)C(N)=O)(C3)NC(=O)[C@H](CC(N)=O)NC(=O)[C@H](Cc3ccccc3)NC(=O)[C@H](C)NC(=O)[C@H](C)NC(=O)[C@H](CC(=O)O)NC(=O)[C@H](CC(=O)O)NC1=O)NC(=O)[C@H](CC(C)(C)C)NC(=O)[C@H](CC(=O)O)NC2=O (stereo partly drawn) [I-1816, Ac-PL3-Asp-Npg-B5-Asp-Asp-Ala-Ala-Phe-Asn-PyrS-3Thi-BztA-Gln-NH2]"
4,182,"CC(=O)N1CCC[C@]12CC=CCCCC1(CCCC=CCOC(=O)N3CC[C@@](C(=O)N[C@@H](Cc4ccsc4)C(=O)N[C@@H](Cc4csc5ccccc45)C(=O)N[C@@H](CCC(N)=O)C(N)=O)(C3)NC(=O)[C@H](CC(N)=O)NC(=O)[C@H](Cc3ccccc3)NC(=O)[C@H](C)NC(=O)[C@H](C)NC(=O)[C@H](CC(=O)O)NC(=O)[C@H](CC(=O)O)NC1=O)NC(=O)[C@H](CC(C)(C)C)NC(=O)[C@H](CC(=O)O)NC2=O (stereo partly drawn) [I-1817, Ac-PL3-Asp-Npg-B5-Asp-Asp-Ala-Ala-Phe-Asn-PyrS-3Thi-BztA-Gln-NH2]"
5,615,"CC(=O)N1CCC[C@]12CC=CCCCC1(CCCC=CCCCCC[C@@](C)(C(=O)N[C@@H](Cc3ccsc3)C(=O)N[C@@H](Cc3csc4ccccc34)C(=O)N[C@@H](CCC(N)=O)C(N)=O)NC(=O)[C@H](CC(N)=O)NC(=O)[C@H](Cc3ccccc3)NC(=O)[C@H](C)NC(=O)[C@H](C)NC(=O)[C@H](CC(=O)O)NC(=O)[C@H](CC(=O)O)NC1=O)NC(=O)[C@H](CC(C)(C)C)NC(=O)[C@H](CC(=O)O)NC2=O (stereo partly drawn) [I-1819, Ac-PL3-Asp-Npg-B5-Asp-Asp-Ala-Ala-Phe-Asn-S7-3Thi-BztA-Gln-NH2]"
6,422,"CC(=O)N1CCC[C@]12CC=CCCCC1(CCCC=CCCCCC[C@@](C)(C(=O)N[C@@H](Cc3ccsc3)C(=O)N[C@@H](Cc3csc4ccccc34)C(=O)N[C@@H](CCC(N)=O)C(N)=O)NC(=O)[C@H](CC(C)C)NC(=O)[C@H](Cc3ccccc3)NC(=O)[C@H](C)NC(=O)[C@H](C)NC(=O)[C@H](CC(=O)O)NC(=O)[C@H](CC(=O)O)NC1=O)NC(=O)[C@H](CC(C)(C)C)NC(=O)[C@H](CC(=O)O)NC2=O (stereo partly drawn) [I-1820, Ac-PL3-Asp-Npg-B5-Asp-Asp-Ala-Ala-Phe-Leu-S7-3Thi-BztA-Gln-NH2]"
7,366,"CC(=O)N1CCC[C@]12CCCCCCC1(CCCCCCCCCC[C@@](C)(C(=O)N[C@@H](Cc3ccsc3)C(=O)N[C@@H](Cc3csc4ccccc34)C(=O)N[C@@H](CCC(N)=O)C(N)=O)NC(=O)[C@H](CC(N)=O)NC(=O)[C@H](Cc3ccccc3)NC(=O)[C@H](C)NC(=O)[C@H](C)NC(=O)[C@H](CC(=O)O)NC(=O)[C@H](CC(=O)O)NC1=O)NC(=O)[C@H](CC(C)(C)C)NC(=O)[C@H](CC(=O)O)NC2=O (stereo partly drawn) [I-1825, Ac-PL3-Asp-Npg-B5-Asp-Asp-Ala-Ala-Phe-Asn-S7-3Thi-BztA-Gln-NH2]"

# Source: patent publication US20240116985A1, “STAPLED PEPTIDES AND METHODS THEREOF” (priority 2020, published 2024)
